This experiment deals with 855422-203-R-J1-PDC complex spheroids, viability. The experiment can be described thus: Anticancer human tumor 855422-203-R-J1-PDC patient-derived bladder carcinoma cell line growth inhibition [CLK]. Particulars: for viability, T/C: stronger effect = lower value. In short, it runs like this:
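Patient-derived tumor cells grown as complex spheroids with HUVEC endothelial cells and mesenchymal stem cells, treated with drug combinations. Concentrations descend in half-log steps from near clinical Cmax, or from 10 microM if Cmax unknown.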

Setting [1] is: curve of first compound, second compound 0.0316 µM.
The mark [2] stands for this setting: curve of first compound, second compound 0.1 µM.
[3] abbreviates: curve of first compound, second compound 0.316 µM.
Setting [4] is: curve of first compound, second compound 1 µM.
Where [5] appears, read: curve of first compound, second compound 3.16 µM.
[6] abbreviates: curve of first compound, second compound 10 µM.

Molecules are shown by their SMILES. Values joined by “and” are separate entries in the source; they are usually repeats but may differ in a detail not shown here. Equal values may be shown once. Some results are limits rather than exact numbers.
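Note: spheroids exposed to drugs for seven days before readout.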
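Throughout, for viability, T/C: 100% = DMSO vehicle control wells.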

`CCN1CCN(Cc2ccc(Nc3ncc(F)c(-c4cc(F)c5nc(C)n(C(C)C)c5c4)n3)nc2)CC1` + CN1CCN(c2cc(C(=O)Nc3cc4cc(-c5cnn(C)c5)ccc4cn3)ccn2)CC1: the IC50 was 0.262 µM under setting [1]; 0.158 µM under setting [2]; below 0.00316 µM under setting [3]; below 0.00316 µM under setting [4]; below 0.00316 µM under setting [5]; below 0.00316 µM under setting [6]. In addition, the viability, T/C by setting is: (second compound 0.0316 µM, first compound 0.00316 µM) 82.8%; (second compound 0.0316 µM, first compound 0.01 µM) 97.1%; (second compound 0.0316 µM, first compound 0.0316 µM) 87.7%; (second compound 0.0316 µM, first compound 0.1 µM) 56.2%; (second compound 0.0316 µM, first compound 0.316 µM) 54.6%; (second compound 0.0316 µM, first compound 1 µM) 42.9%. The viability, T/C (second compound 0.1 µM, first compound 0.00316 µM) is 66.3%; the viability, T/C (second compound 0.1 µM, first compound 0.01 µM) is 72.4%; the viability, T/C (second compound 0.1 µM, first compound 0.0316 µM) is 76.2%; the viability, T/C (second compound 0.1 µM, first compound 0.1 µM) is 59.9%; the viability, T/C (second compound 0.1 µM, first compound 0.316 µM) was 34.8%; the viability, T/C (second compound 0.1 µM, first compound 1 µM) was 30.4%. Besides, the viability, T/C is 7.42% (second compound 0.316 µM, first compound 0.00316 µM); 10.2% (second compound 0.316 µM, first compound 0.01 µM); 14.1% (second compound 0.316 µM, first compound 0.0316 µM); 13.1% (second compound 0.316 µM, first compound 0.1 µM); 18% (second compound 0.316 µM, first compound 0.316 µM); 14.3% (second compound 0.316 µM, first compound 1 µM). Besides, the viability, T/C (second compound 1 µM, first compound 0.00316 µM) is 0.35%; the viability, T/C (second compound 1 µM, first compound 0.01 µM) was 0.82%; the viability, T/C (second compound 1 µM, first compound 0.0316 µM) was 1.18%; the viability, T/C (second compound 1 µM, first compound 0.1 µM) was 0.5%; the viability, T/C (second compound 1 µM, first compound 0.316 µM) is 0.97%; the viability, T/C (second compound 1 µM, first compound 1 µM) is 1.71%. The viability, T/C is, setting by setting: (second compound 3.16 µM, first compound 0.00316 µM) 0.55%; (second compound 3.16 µM, first compound 0.01 µM) 1.57%; (second compound 3.16 µM, first compound 0.0316 µM) 0.95%; (second compound 3.16 µM, first compound 0.1 µM) 0.83%; (second compound 3.16 µM, first compound 0.316 µM) 2.86%; (second compound 3.16 µM, first compound 1 µM) 2.68%. Also, the viability, T/C runs as follows: (second compound 10 µM, first compound 0.00316 µM) 0.5%; (second compound 10 µM, first compound 0.01 µM) 0.53%; (second compound 10 µM, first compound 0.0316 µM) 0.3%; (second compound 10 µM, first compound 0.1 µM) 0.46%; (second compound 10 µM, first compound 0.316 µM) 0.64%; (second compound 10 µM, first compound 1 µM) 0.65%.

With `NC(=O)C(=Cn1cnc(-c2cc(C(F)(F)F)cc(C(F)(F)F)c2)n1)c1cncnc1`, the viability, T/C was 133% and 162% (compound 0.00949 µM); 110% and 130% (compound 0.03 µM); 30.4% and 25.3% (compound 0.0949 µM); 11.7% and 9.71% (compound 0.3 µM); 10.5% and 7.35% (compound 0.949 µM); 4.97% and 5% (compound 3 µM). Besides, the IC50 (curve of compound) is 0.0717 µM and 0.0723 µM.

On to `CC(Nc1ccc2c(c1)OCCn1cc(N3C(=O)OCC3C(F)F)nc1-2)C(N)=O` (configuration not stated), for which the viability, T/C is 94.9% and 74% (compound 0.0316 µM); 71% and 67.6% (compound 0.1 µM); 50.9% and 45.7% (compound 0.316 µM); 28.4% and 20.6% (compound 1 µM); 21.2% and 20.3% (compound 3.16 µM); 16.1% and 11.5% (compound 10 µM). For the same molecule, the IC50 (curve of compound) is 0.294 µM and 0.249 µM.

For the molecule `CC(C)CC(NC(=O)C(Cc1ccccc1)NC(=O)c1cnccn1)B(O)O` (configuration not stated) + CNC(=O)c1ccc(Nc2nc(OC3CCCC3)c3c(-c4ccc5nc(C)oc5c4)c[nH]c3n2)c(OC)c1, the half-inhibitory concentration (IC50) by setting is: under setting [1], below 0.000949 µM; under setting [2], below 0.000949 µM; under setting [3], below 0.000949 µM; under setting [4], below 0.000949 µM; under setting [5], below 0.000949 µM; under setting [6], below 0.000949 µM. Moreover, the viability, T/C runs as follows: (second compound 0.0316 µM, first compound 0.000949 µM) 4.13%; (second compound 0.0316 µM, first compound 0.003 µM) 0.22%; (second compound 0.0316 µM, first compound 0.00949 µM) 0.2%; (second compound 0.0316 µM, first compound 0.03 µM) 0.21%; (second compound 0.0316 µM, first compound 0.0949 µM) 0.17%; (second compound 0.0316 µM, first compound 0.3 µM) 0.18%. For the same molecule, the viability, T/C is 2.95% (second compound 0.1 µM, first compound 0.000949 µM); 0.2% (second compound 0.1 µM, first compound 0.003 µM); 0.18% (second compound 0.1 µM, first compound 0.00949 µM); 0.17% (second compound 0.1 µM, first compound 0.03 µM); 0.17% (second compound 0.1 µM, first compound 0.0949 µM); 0.49% (second compound 0.1 µM, first compound 0.3 µM). The viability, T/C by setting is: (second compound 0.316 µM, first compound 0.000949 µM) 2.47%; (second compound 0.316 µM, first compound 0.003 µM) 0.17%; (second compound 0.316 µM, first compound 0.00949 µM) 0.13%; (second compound 0.316 µM, first compound 0.03 µM) 0.13%; (second compound 0.316 µM, first compound 0.0949 µM) 0.12%; (second compound 0.316 µM, first compound 0.3 µM) 0.54%. The viability, T/C is, setting by setting: (second compound 1 µM, first compound 0.000949 µM) 1.78%; (second compound 1 µM, first compound 0.003 µM) 0.13%; (second compound 1 µM, first compound 0.00949 µM) 0.13%; (second compound 1 µM, first compound 0.03 µM) 0.1%; (second compound 1 µM, first compound 0.0949 µM) 0.14%; (second compound 1 µM, first compound 0.3 µM) 0.1%. The viability, T/C (second compound 3.16 µM, first compound 0.000949 µM) was 1.68%; the viability, T/C (second compound 3.16 µM, first compound 0.003 µM) is 0.13%; the viability, T/C (second compound 3.16 µM, first compound 0.00949 µM) was 0.65%; the viability, T/C (second compound 3.16 µM, first compound 0.03 µM) was 0.08%; the viability, T/C (second compound 3.16 µM, first compound 0.0949 µM) was 0.1%; the viability, T/C (second compound 3.16 µM, first compound 0.3 µM) was 0.11%. The viability, T/C (second compound 10 µM, first compound 0.000949 µM) was 1.83%; the viability, T/C (second compound 10 µM, first compound 0.003 µM) was 0.15%; the viability, T/C (second compound 10 µM, first compound 0.00949 µM) was 0.13%; the viability, T/C (second compound 10 µM, first compound 0.03 µM) was 0.12%; the viability, T/C (second compound 10 µM, first compound 0.0949 µM) is 0.28%; the viability, T/C (second compound 10 µM, first compound 0.3 µM) was 0.12%.

On to `COc1cccc2c1C(=O)c1c(O)c3c(c(O)c1C2=O)CC(O)(C(=O)CO)CC3OC1CC(N)C(O)C(C)O1` (configuration not stated), for which the viability, T/C (compound 0.0316 µM) was 15.1% and 13.7%; the viability, T/C (compound 0.1 µM) is 2.91% and 1.62%; the viability, T/C (compound 0.316 µM) was 1.09% and 1.08%; the viability, T/C (compound 1 µM) is 1.18% and 0.23%; the viability, T/C (compound 3.16 µM) is 0.29% and 0.47%; the viability, T/C (compound 10 µM) was 0.19% and 0.46%. In addition, the IC50 (curve of compound) was below 0.0316 µM.

For `CCCS(=O)(=O)Nc1ccc(F)c(C(=O)c2c[nH]c3ncc(-c4ccc(Cl)cc4)cc23)c1F`, the viability, T/C reads like this: (compound 0.0316 µM) 101% and 114%; (compound 0.1 µM) 98.5% and 97.8%; (compound 0.316 µM) 112% and 118%; (compound 1 µM) 107% and 111%; (compound 3.16 µM) 109% and 119%; (compound 10 µM) 3.67% and 1.89%. Also, the IC50 (curve of compound) is 5.93 µM and 6.04 µM.

Usually IC50 stands for the concentration at which inhibition is half-maximal. The viability, T/C is the ratio of treated to control.

The values are drawn from PubChem BioAssay AID2060609 (Molecular Pharmacology Branch, DTP, NCI, 2025).
